Here are results for eight compounds from publication PMC10607100, “Anticancer and Antiphytopathogenic Activity of Fluorinated Isatins and Their Water-Soluble Hydrazone Derivatives” (International Journal of Molecular Sciences, 2023).

In one data set the test system is M-HeLa. The experiment in a line: MTT cell viability test, M-HeLa. The format is cell-based, human. As to conditions: for IC50: Homo sapiens, M-HeLa, incubation time 24 h; for selectivity (SI) for M-HeLa: IC50 normal cells (WI38) / IC50 M-HeLa. How it is done:
(§1) Human cell cultures of tumor origin—HeLa (cervical tumor), HuTu 80 (human duodenal adenocarcinoma), ChangLiver (human liver HeLa-like line), and normal cell line WI38, VA 13 subline 2RA is a diploid human cell strain composed of fibroblasts derived from healthy lung tissue provided by The Gamaleya National Center for Epidemiology and Microbiology, as well as the Institute of Cytology of the Russian Academy of Sciences. They were grown in a nutrient medium DMEM (PanEco, Moscow, Russia) and MEM (PanEco, Moscow, Russia), containing fetal bovine serum (10% by volume) (ThermoFisher Scientific, Paisley, UK), Glutamax (2 mM) (Gibco, Scotland, UK), and penicillin-streptomycin (1% by volume) (PanEco, Moscow, Russia). The cultivation was carried out at 37 °C in a humidified CO2 atmosphere (5%).
(§2) Cell viability was determined by the MTT test. Cells were seeded in a 96-well plate in the amount of 1 × 10^4 cells/200 µL of complete nutrient medium and cultured at 37 °C in CO2 (5%). After 24 h of incubation, various concentrations of test compounds in the range of 0.1 to 100 μM were added to the cell cultures, and then the cells were cultured under the same conditions for 24 and 72 h. For each concentration, the experiment was carried out in triplicate.
(§3) All compounds were dissolved in DMSO and then diluted with the medium to the required concentration. […] The DMSO was also added to the control wells in a volume of 1%. After the incubation time, MTT (3-(4,5-dimethylthiazol-2-yl)-2,5-diphenyltetrazolium bromide, 5 mg/mL) was added to each well, and plates were additionally incubated for 2 h (until the characteristic color appeared).
(§4) Using a plate analyzer (Cytation3, BioTech Instruments Inc., Winooski, VT, USA), the optical density was determined at 530 nm.
(§5) The IC50 parameter was calculated using the AAT Bioquest program.
(§6) The selectivity index (SI) is calculated as the ratio between the IC50 for normal cells and the IC50 for cancer cells.

A further data set has as its system HuTu 80. The experiment in a line: MTT cell viability test, HuTu 80. As to conditions: for IC50: Homo sapiens, HuTu80, incubation time 24 h; for selectivity (SI) for HuTu 80: IC50 normal cells (WI38) / IC50 HuTu 80. The format is cell-based, human. The protocol:
as §1, §2, §3, §4, §5, §6
On the technique in general: Tetrazolium dyes change colour on reduction, which living cells bring about.

A further data set deals with Chang Liver. The experiment in a line: MTT cell viability test, Chang liver. The format is cell-based. As to conditions: Homo sapiens, incubation time 24 h. How it is done: as §1, §2, §3, §4, §5
The test system of a further data set is WI38. The experiment in a line: MTT cell viability test, WI38. The format is cell-based, human. As to conditions: for IC50: Homo sapiens, WI-38, incubation time 24 h. How it is done: as §1, §2, §3, §4, §5
The subject of data set [1] is HuTu 80 cells. In words: Mitochondrial membrane potential, JC-10 flow cytometry. The format is cell-based, human. As to conditions: 24 h; concentrations corresponding to IC50. The protocol:
To analyze the effect of compounds on changes in the mitochondrial membrane potential, we performed flow cytometry using JC-10 fluorescent dye (in the Mitochondria Membrane Potential Kit). In normal cells (with high membrane potential), JC-10 accumulates in the mitochondrial matrix, where it forms aggregates with red fluorescence. However, in apoptotic cells, JC-10 diffuses out of mitochondria, converts to its monomeric form, and emits green fluorescence, which is recorded by a flow cytometer. Cells were harvested at 2757 g for 5 min and then washed twice with ice-cold PBS, followed by resuspension in JC-10 (10 µg/mL) and incubation at 37 °C for 10 min. Then, the cells were rinsed three times and suspended in PBS, and the JC-10 fluorescence was observed by flow cytometry (Guava easyCyte, Merck, Rahway, NJ, USA).
In general terms: In flow cytometry, cells or beads pass a laser one at a time.

Data set [2] deals with HuTu 80 cells. In words: ROS production, CellROX Deep Red flow cytometry. The format is cell-based, human. The protocol:
ROS generation was investigated using a flow cytometry assay and the CellROX® Deep Red flow cytometry kit. For this, HuTu 80 cells were harvested at 2000 rpm for 5 min and then washed twice with ice-cold PBS, followed by resuspension in 0.1 mL of medium without FBS, to which was added 0.2 μL of CellROX® Deep Red and incubated at 37 °C for 30 min. After three times washing the cells and suspending them in PBS, the production of ROS in the cells was immediately monitored using a flow cytometer (Guava easyCyte, Merck, Rahway, NJ, USA).

For the next data set, the system named is platelet aggregation. The experiment in a line: Platelet aggregation, Born method. The format is cell-based, human. Particulars: for reduction of the maximum platelet aggregation, on average: text summary for 3a and 3b. The protocol: The in vitro experiments were performed using the blood of healthy male donors aged 18-24 years (a total of 54 donors). This study was approved by the Ethics Committee of the Federal State Budgetary Educational Institution of Higher Education at the Bashkir State Medical University of the Ministry of Health of the Russian Federation (No. 2, dated 17 October 2012). Informed consent was obtained from all participants before blood sampling. The blood was collected from the cubital vein using the vacuum blood collection system BD Vacutainer® (Becton, Dickinson, and Company, Franklin Lakes, NJ, USA). […] The study of the effect on platelet aggregation was performed using the Born method using the aggregometer «[…], Moscow, Russia). The assessment of the antiplatelet activity of the studied compounds and reference preparations was started with a final concentration of 2 × 10^-3 mol/L. Adenosine diphosphate (ADP; 20 μg/mL) and collagen (5 mg/mL) manufactured by […] Company, Barnaul, Russia, were used as inducers of aggregation. The study on the anticoagulant activity was performed by standard recognized clotting tests using the optical two-channel automatic analyzer of blood coagulation, Solar […] SOLAR, Minsk, Belarus). The following parameters were studied: activated partial thromboplastin time (APTT), prothrombin time (PT), and fibrinogen concentrations according to the Clauss method. The determination of the anticoagulant activity of the studied compounds and reference preparation was performed at a concentration of 5 × 10^-4 g/mL using the reagents manufactured by […] Company (Barnaul, Russia). The results of the study were processed using the statistical package Statistica 10.0 (StatSoft Inc., Tulsa, OK, USA). The Shapiro-Wilk's test was used to check the normality of the [NT] distribution. The form of distribution of the data obtained differed from the normal one; therefore, non-parametric methods were used for further analysis. The data were presented as medians and 25 and 75 percentiles. An analysis of variance was conducted using the Kruskal-Wallis test.

For data set [3], the system named is HuTu 80 cells. The experiment in a line: Apoptosis induction, annexin V/propidium iodide flow cytometry. The format is cell-based, human. As to conditions: 24 h; IC50 concentration of 40 μM. How it is done:
HuTu 80 cells at 1 × 10^6 cells/well in a final volume of 2 mL were seeded into six-well plates. After 24 h of incubation, various concentrations of tested compounds were added to the wells. The cells were harvested at 2757 g for 5 min and then washed twice with ice-cold PBS, followed by resuspension in binding buffer. Next, the samples were incubated with 5 μL of annexin V-Alexa Fluor 647 (Sigma-Aldrich, Burlington, MA, USA) and 5 μL of propidium iodide for 15 min at room temperature in the dark. Finally, the cells were analyzed by flow cytometry (Guava easyCyte, Merck, Rahway, NJ, USA) within 1 h. The experiments were repeated three times.

As usually defined, the IC50 is the midpoint of a concentration-inhibition curve. Read a high IC50 as weaker potency. Take `O=C1C(=O)N(Cc2c(F)cccc2Cl)c2ccc(F)cc21` [Compound 3d, 1-(2-Chloro-6-fluorobenzyl)-5-fluoroindoline-2,3-dione]: the IC50 was 53.8 ± 4.3 µM in the data set with M-HeLa, 31 ± 2.4 µM in the data set with HuTu 80, above 100 µM in the data set on Chang Liver and 78.3 ± 8 µM with WI38. The “selectivity (SI) for M-HeLa” value in the data set on M-HeLa turned out to be 1.5. Moreover, in the data set with HuTu 80, the “selectivity (SI) for HuTu 80” value worked out at 2.5. For the same compound, in the data set with WI38, the “cytotoxicity against the healthy cell line WI38” value is given as “low cytotoxicity”. Moreover, in the data set on HuTu 80 cells [1], the “green fluorescence increased relative to the control” value is reported as “up to 55%”. In addition, the “ROS production relative to the control” value with HuTu 80 cells [2] is recorded as “increased ROS production”.

By melting point is commonly meant the temperature of the solid-liquid transition. Consider `CC(C)(C)c1cc(CN2C(=O)C(=O)c3cc(F)ccc32)cc(C(C)(C)C)c1` [Compound 4d, 1-(3,5-Di-tert-butylbenzyl)-5-fluoroindoline-2,3-dione], for which the melting point was in the range of 136 to 137 °C. In addition, the IC50 in the data set with M-HeLa came to 58.4 ± 4.1 µM. The compound also showed an IC50 in the data set on HuTu 80 of 33.3 ± 2.3 µM. Moreover, the IC50 in the data set with Chang Liver stood at 39.4 ± 2.8 µM.

For `O=C1C(=O)N(Cc2ccccc2F)c2ccc(F)cc21` [Compound 3a, 5-Fluoro-1-(2-fluorobenzyl)indoline-2,3-dione], the concentration for half-maximal inhibition (IC50) with M-HeLa stood at 74.6 ± 5.9 µM; in the data set on HuTu 80, 25.2 ± 1.9 µM; in the data set with Chang Liver it was 53 ± 4.2 µM; in the data set on WI38 it was 62 ± 2 µM. For the same compound, in the data set with HuTu 80, the “selectivity (SI) for HuTu 80” value worked out at 2.5. Besides, the “cytotoxicity against the healthy cell line WI38” value with WI38 is “low cytotoxicity”. Also, the “increase in ROS production relative to the control” value is reported as 1.1 fold in the data set with HuTu 80 cells [2] (12.5 µM) and 7.1 times with HuTu 80 cells [2] (25 µM). The “lengthening of the lag-period relative to the control” value in the data set on platelet aggregation is “more than 10%”. Moreover, the “reduction of the maximum platelet aggregation, on average” value in the data set with platelet aggregation is recorded as around 12%.

As for `Cc1cc(C)cc(CN2C(=O)C(=O)c3cc(F)ccc32)c1` [Compound 4b, 1-(3,5-Dimethylbenzyl)-5-fluoroindoline-2,3-dione], the melting point lay within 97 to 98 °C. Also, the concentration for half-maximal inhibition (IC50) in the data set on M-HeLa worked out at 58.8 ± 4.4 µM. Besides, in the data set on HuTu 80, the IC50 is 50 ± 3.8 µM. Besides, the IC50 with Chang Liver turned out to be 63.2 ± 5.5 µM.

In turn, `O=C1C(=O)N(Cc2c(F)c(F)c(F)c(F)c2F)c2ccc(F)cc21` [Compound 3f, 5-Fluoro-1-((perfluorophenyl)methyl)indoline-2,3-dione] registered a melting point of 112 to 113 °C. The compound also had an IC50 in the data set on M-HeLa of 100 ± 7.4 µM. The compound further yielded an IC50 with HuTu 80 of 92 ± 6.4 µM. Besides, in the data set on Chang Liver, the IC50 is above 100 µM.

`Cc1ccc2c(c1)C(=O)C(=O)N2Cc1cccc(C(F)(F)F)c1` [Compound 4e, 5-Methyl-1-(3-(trifluoromethyl)benzyl)indoline-2,3-dione] gave a melting point of 155 to 156 °C. This compound yielded an IC50 in the data set on M-HeLa of 94 ± 7.5 µM. The same compound returned an IC50 in the data set on HuTu 80 of 53.2 ± 3.9 µM. For the same compound, the IC50 with Chang Liver is above 100 µM.

In the case of `O=C1C(=O)N(Cc2ccccc2Cl)c2ccc(F)cc21` [Compound 3b, 1-(2-Chlorobenzyl)-5-fluoroindoline-2,3-dione], in the data set on M-HeLa, the 50% inhibitory concentration (IC50) was found to be 32.1 ± 2.5 µM and the “selectivity (SI) for M-HeLa” value turned out to be 1.8. Besides, the “cytotoxicity, times higher than the reference drug 5-FU” value with M-HeLa (cell line not given) is on record as 2.0 times. Also, in the data set on HuTu 80, the midpoint of inhibition, the IC50, lay at 38.3 ± 3 µM and the “selectivity (SI) for HuTu 80” value was 1.5. In the data set with Chang Liver, half-maximal inhibition (IC50) was put at 71.5 ± 5.6 µM. Besides, in the data set on WI38, the “cytotoxicity against the healthy cell line WI38” value is recorded as “low cytotoxicity” and the IC50 turned out to be 58.1 ± 6.6 µM. For the same compound, the “apoptosis-inducing activity” value in the data set with HuTu 80 cells [3] was “highest apoptosis-inducing activity”. The “green fluorescence increased relative to the control” value in the data set with HuTu 80 cells [1] is “up to 55%”. Further, the “ROS production relative to the control” value in the data set on HuTu 80 cells [2] is reported as “increased ROS production”. Further, in the data set with platelet aggregation, the “lengthening of the lag-period relative to the control” value is “more than 10%” and the “reduction of the maximum platelet aggregation, on average” value was around 12%.

For `O=c1[nH]cc(F)c(=O)[nH]1` [Compound 5-FU, 5-fluorouracil, reference compound], the IC50 in the data set on M-HeLa came out at 62 ± 4.9 µM; with Chang Liver it was 19 ± 1.7 µM; with WI38, 62 ± 4.2 µM. The “selectivity (SI) for M-HeLa” value in the data set on M-HeLa was at most 1. Besides, in the data set on HuTu 80, the “selectivity (SI) for HuTu 80” value is on record as at most 1.
